Assay [1] has as its target T1, recombinant human ALK5 (TGF-βR1) protein (Homo sapiens, UniProt P36897).
T1 construct: purchased Life Technologies PR9075A
T1 sequence (P36897 34-503): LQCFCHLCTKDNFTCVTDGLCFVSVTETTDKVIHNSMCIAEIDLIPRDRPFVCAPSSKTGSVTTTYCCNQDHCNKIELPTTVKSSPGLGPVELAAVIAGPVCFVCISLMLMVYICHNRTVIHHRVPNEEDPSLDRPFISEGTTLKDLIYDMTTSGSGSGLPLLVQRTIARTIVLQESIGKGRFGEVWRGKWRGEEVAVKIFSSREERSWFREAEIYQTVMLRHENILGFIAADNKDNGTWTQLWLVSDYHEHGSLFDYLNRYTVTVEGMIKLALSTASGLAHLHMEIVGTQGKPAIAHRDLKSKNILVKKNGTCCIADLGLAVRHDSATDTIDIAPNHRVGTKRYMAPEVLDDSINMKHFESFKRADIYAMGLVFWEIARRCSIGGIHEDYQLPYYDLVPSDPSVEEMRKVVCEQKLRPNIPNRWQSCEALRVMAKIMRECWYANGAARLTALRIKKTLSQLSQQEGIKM
As to the kind of experiment: Biochemical ALK5 (TGF-βR1) assay to measure pKi (LANCE Ultra ULight kinase assay). As to conditions: apparent pKi, converted from pIC50 by Cheng-Prusoff. In outline:
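Europium TR-FRET kinase assay: the enzyme is exposed to compound for 60 min at room temperature, and reaction with ATP runs 60 min at 37 °C. Percent inhibition relative to DMSO and SD-208 controls gives pIC50, which is converted to pKi.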

Assay [2] deals with TGF-β-stimulated SMAD3 phosphorylation in BEAS-2B cells. As to the kind of experiment: Cellular ALK5 potency assay, inhibition of TGF-β stimulated pSMAD3 formation in BEAS-2B cells. Type of assay: cell-based. Particulars: Homo sapiens, pSMAD3, TGF-β 10 ng/mL, read-out: BEAS2B pIC50 (converted). In outline:
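BEAS-2B cells, HBSS/25 mM HEPES/1% BSA buffer; cpd 1 h, 37 °C; TGF-β 10 ng/mL final, 30 min; lysis, AlphaLISA pSMAD3 read next day. pIC50 vs stimulated no-compound baseline.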

Each structure is given as a SMILES string. Where only a bound is given, the exact number is not on record here.

With `Cc1cccc(-c2nccc(Nc3ccnc(Nc4ccc(N5CCC(NCc6ccccc6)CC5)cc4)n3)n2)n1` [Compound 450, N2-[4-[4-(benzylamino)-1-piperidyl]phenyl]-N4-[2-(6-methyl-2-pyridyl)pyrimidin-4-yl]pyrimidine-2,4-diamine], the Ki in assay [1] is 0.0398 to 0.316 nM. In addition, in assay [2], the IC50 was 200 to 1260 nM.
Consider `COC(=O)CC1CN(Cc2ccc(Nc3nccc(Nc4ccnc(-c5cccc(C)n5)n4)n3)cc2)CCN1` (stereo not drawn) [Compound 451, methyl 2-[4-[[4-[[4-[[2-(6-methyl-2-pyridyl)pyrimidin-4-yl]amino]pyrimidin-2-yl]amino]phenyl]methyl]piperazin-2-yl]acetate], for which, in assay [1], the Ki is 0.0398 to 0.316 nM. Further, in assay [2], the IC50 is 25.1 to 158 nM.
On to `Cc1cccc(-c2nccc(Nc3ccnc(Nc4csc(NC(=O)C5CCNCC5)c4)n3)n2)n1` [Compound 452, N-(4-((4-((2-(6-methylpyridin-2-yl)pyrimidin-4-yl)amino)pyrimidin-2-yl)amino)thiophen-2-yl)piperidine-4-carboxamide], for which the Ki in assay [1] was 0.0398 to 0.316 nM. In assay [2], the IC50 was at most 20 nM.
On to `Cc1cccc(-c2nccc(Nc3ccnc(Nc4ccc(CN5C[C@H](C)NC[C@@H]5C)cc4)n3)n2)n1` [Compound 453, N2-[4-[[(2S,5S)-2,5-dimethylpiperazin-1-yl]methyl]phenyl]-N4-[2-(6-methyl-2-pyridyl)pyrimidin-4-yl]pyrimidine-2,4-diamine], for which, in assay [1], the Ki was 0.0398 to 0.316 nM. Further, the IC50 in assay [2] is 25.1 to 158 nM.
With `Cc1cccc(-c2nccc(Nc3ccnc(Nc4ccc(N5CCCC(C(=O)O)C5)cc4)n3)n2)n1` (stereo not drawn) [Compound 454, 1-[4-[[4-[[2-(6-methyl-2-pyridyl)pyrimidin-4-yl]amino]pyrimidin-2-yl]amino]phenyl]piperidine-3-carboxylic acid], in assay [1], the Ki is 0.0398 to 0.316 nM. Besides, the IC50 in assay [2] is 200 to 1260 nM.
Consider `Cc1cccc(-c2nccc(Nc3ccnc(Nc4ccc(NS(=O)(=O)c5c[nH]cn5)cc4)n3)n2)n1` [Compound 455, N-[4-[[4-[[2-(6-methyl-2-pyridyl)pyrimidin-4-yl]amino]pyrimidin-2-yl]amino]phenyl]-1H-imidazole-4-sulfonamide], for which the Ki in assay [1] was 0.398 to 3.16 nM. Besides, in assay [2], the IC50 is 200 to 1260 nM.
Taken in the same sequence, the figures for `Cc1cccc(-c2nccc(Nc3ccnc(Nc4ccc(N5CCN(C6CC6)CC5)cc4)n3)n2)n1` [Compound 457, N2-[4-(4-cyclopropylpiperazin-1-yl)phenyl]-N4-[2-(6-methyl-2-pyridyl)pyrimidin-4-yl]pyrimidine-2,4-diamine] were 0.0398 to 0.316 nM and 25.1 to 158 nM.
As to `Cc1cccc(-c2nccc(Nc3ccnc(Nc4ccc(C)c(CN5C6CCC5CNC6)c4)n3)n2)n1` [Compound 458, N2-[3-(3,8-diazabicyclo[3.2.1]octan-8-ylmethyl)-4-methyl-phenyl]-N4-[2-(6-methyl-2-pyridyl)pyrimidin-4-yl]pyrimidine-2,4-diamine], the Ki in assay [1] was 0.0398 to 0.316 nM. In addition, the IC50 in assay [2] was 25.1 to 158 nM.
For `Cc1cccc(-c2nccc(Nc3ccnc(Nc4cccc(C(=O)O[C@@H]5CCNC5)c4)n3)n2)n1` [Compound 459, [(3R)-pyrrolidin-3-yl] 3-[[4-[[2-(6-methyl-2-pyridyl)pyrimidin-4-yl]amino]pyrimidin-2-yl]amino]benzoate] the same measures were 0.398 to 3.16 nM and 25.1 to 158 nM.
For the compound `Cc1cccc(-c2nccc(Nc3ccnc(Nc4nc(CN5CCC[C@@H](C(=O)O[C@@H]6CCN(C)C6)C5)cs4)n3)n2)n1` [Compound 460, [(3R)-1-methylpyrrolidin-3-yl] (3R)-1-[[2-[[4-[[2-(6-methyl-2-pyridyl)pyrimidin-4-yl]amino]pyrimidin-2-yl]amino]thiazol-4-yl]methyl]piperidine-3-carboxylate], the Ki in assay [1] is 0.0398 to 0.316 nM. Also, the IC50 in assay [2] is 25.1 to 158 nM.
As to `Cc1cccc(-c2nccc(Nc3ccnc(Nc4ccc(F)c(CN5CCSCC5)c4)n3)n2)n1` [Compound 461, N2-[4-fluoro-3-(thiomorpholinomethyl)phenyl]-N4-[2-(6-methyl-2-pyridyl)pyrimidin-4-yl]pyrimidine-2,4-diamine], the Ki in assay [1] is 0.398 to 3.16 nM. Moreover, the IC50 in assay [2] was 25.1 to 158 nM.
For `COC(=O)CC1CNCCN1c1ccc(Nc2nccc(Nc3ccnc(-c4cccc(C)n4)n3)n2)cc1` (stereo not drawn) [Compound 462, methyl 2-[1-[4-[[4-[[2-(6-methyl-2-pyridyl)pyrimidin-4-yl]amino]pyrimidin-2-yl]amino]phenyl]piperazin-2-yl]acetate] the same measures were 0.0398 to 0.316 nM and 25.1 to 158 nM.
Take `Cc1cccc(-c2nccc(Nc3ccnc(Nc4ccc(CN5CCN[C@H](CO)C5)cc4)n3)n2)n1` [Compound 463, [(2S)-4-[[4-[[4-[[2-(6-methyl-2-pyridyl)pyrimidin-4-yl]amino]pyrimidin-2-yl]amino]phenyl]methyl]piperazin-2-yl]methanol]: the Ki in assay [1] is 0.0398 to 0.316 nM. The IC50 in assay [2] is 25.1 to 158 nM.
Taken in the same sequence, the figures for `Cc1cccc(-c2nccc(Nc3ccnc(Nc4ccc(C(=O)O[C@@H]5CCN(C)C5)cc4)n3)n2)n1` [Compound 464, [(3R)-1-methylpyrrolidin-3-yl] 4-[[4-[[2-(6-methyl-2-pyridyl)pyrimidin-4-yl]amino]pyrimidin-2-yl]amino]benzoate] were 0.0398 to 0.316 nM and 25.1 to 158 nM.
In the case of `Cc1cccc(-c2nccc(Nc3ccnc(Nc4ccc(NC(=O)C5CCN(C6CCNC6)CC5)cc4)n3)n2)n1` (stereo not drawn) [Compound 465, N-[4-[[4-[[2-(6-methyl-2-pyridyl)pyrimidin-4-yl]amino]pyrimidin-2-yl]amino]phenyl]-1-pyrrolidin-3-yl-piperidine-4-carboxamide], the Ki in assay [1] was 0.0398 to 0.316 nM. The IC50 in assay [2] is at most 20 nM.
Turning to `CC[C@H](C)OC(=O)Cc1cc(Nc2nccc(Nc3ccnc(-c4cccc(C)n4)n3)n2)ccc1N1CCNCC1` [Compound 466, [(1S)-1-methylpropyl] 2-[5-[[4-[[2-(6-methyl-2-pyridyl)pyrimidin-4-yl]amino]pyrimidin-2-yl]amino]-2-piperazin-1-yl-phenyl]acetate], the Ki in assay [1] is 0.0398 to 0.316 nM. Further, the IC50 in assay [2] was 25.1 to 158 nM.
Turning to `Cc1cccc(-c2nccc(Nc3ccnc(Nc4nc(CN(C)C5CNC5)cs4)n3)n2)n1` [Compound 467, N2-[4-[[azetidin-3-yl(methyl)amino]methyl]thiazol-2-yl]-N4-[2-(6-methyl-2-pyridyl)pyrimidin-4-yl]pyrimidine-2,4-diamine], the Ki in assay [1] is 0.398 to 3.16 nM. Besides, in assay [2], the IC50 was 25.1 to 158 nM.
As to `Cc1cccc(-c2nccc(Nc3ccnc(Nc4ccc(-c5c(C)noc5C)cc4)n3)n2)n1` [Compound 469, N2-[4-(3,5-dimethylisoxazol-4-yl)phenyl]-N4-[2-(6-methyl-2-pyridyl)pyrimidin-4-yl]pyrimidine-2,4-diamine], the Ki in assay [1] is 0.398 to 3.16 nM. The IC50 in assay [2] is 25.1 to 158 nM.
`Cc1cccc(-c2nccc(Nc3ccnc(Nc4ccc(CN5[C@H](C)CNC[C@@H]5C)cc4)n3)n2)n1` [Compound 470, N2-[4-[[(2R,6S)-2,6-dimethylpiperazin-1-yl]methyl]phenyl]-N4-[2-(6-methyl-2-pyridyl)pyrimidin-4-yl]pyrimidine-2,4-diamine]: in assay [1], the Ki is 0.0398 to 0.316 nM. Moreover, the IC50 in assay [2] was 25.1 to 158 nM.
On to `Cc1cccc(-c2nccc(Nc3ccnc(Nc4ccc(N5CCC(CNCc6ccccc6)CC5)cc4)n3)n2)n1` [Compound 471, N2-[4-[4-[(benzylamino)methyl]-1-piperidyl]phenyl]-N4-[2-(6-methyl-2-pyridyl)pyrimidin-4-yl]pyrimidine-2,4-diamine], for which the Ki in assay [1] is 0.398 to 3.16 nM. For the same compound, in assay [2], the IC50 was 200 to 1260 nM.
On to `Cc1cccc(-c2nccc(Nc3ccnc(Nc4ccc(N5CCC(C(=O)OC6CCN(C)C6)CC5)cc4)n3)n2)n1` (stereo not drawn) [Compound 472, (1-methylpyrrolidin-3-yl) 1-[4-[[4-[[2-(6-methyl-2-pyridyl)pyrimidin-4-yl]amino]pyrimidin-2-yl]amino]phenyl]piperidine-4-carboxylate], for which, in assay [1], the Ki is 0.0398 to 0.316 nM. Further, in assay [2], the IC50 was 25.1 to 158 nM.
For `Cc1cccc(-c2nccc(Nc3ccnc(Nc4ccc(N5CCN(C6CNC6)CC5)cc4)n3)n2)n1` [Compound 473, N2-[4-[4-(azetidin-3-yl)piperazin-1-yl]phenyl]-N4-[2-(6-methyl-2-pyridyl)pyrimidin-4-yl]pyrimidine-2,4-diamine] the same measures were 0.0398 to 0.316 nM and 200 to 1260 nM.
As to `Cc1cccc(-c2nccc(Nc3ccnc(Nc4ccc(CN5CCC(CO)CC5)cc4)n3)n2)n1` [Compound 474, [1-[[4-[[4-[[2-(6-methyl-2-pyridyl)pyrimidin-4-yl]amino]pyrimidin-2-yl]amino]phenyl]methyl]-4-piperidyl]methanol], the Ki in assay [1] was at most 0.0316 nM. In addition, the IC50 in assay [2] was 25.1 to 158 nM.
For the compound `Cc1cccc(-c2nccc(Nc3ccnc(Nc4ccc(N5CCOCC5)cc4)n3)n2)n1` [Compound 475, N4-(2-(6-methylpyridin-2-yl)pyrimidin-4-yl)-N2-(4-morpholinophenyl)pyrimidine-2,4-diamine], the Ki in assay [1] was 0.0398 to 0.316 nM. In assay [2], the IC50 is at most 20 nM.
